{"source": "patent EP1623706A2", "about": "(priority 2001, dated 2002)", "key": {"[1]": {"tested_on": "drug-resistant Lewis Lung carcinoma", "conditions": "170 mg/kg every 6 days versus other cyclophosphamide schedules tested (e.g. 135 mg/kg every 4 days); cited from earlier work"}, "[2]": {"tested_on": "human umbilical vein endothelial cell (HUVEC)", "experiment": "HUVEC proliferation (3H-thymidine incorporation)", "assay_type": "cell-based", "conditions": "second value of two separate experiments, read-out: IC50 in Cells HUVEC", "protocol": "Primary human umbilical vein endothelial cells (HUVEC) were purchased from CLONETICS Inc. (San Diego, CA) and used at passage 2 to 3. Proliferation was measured using ^3H-thymidine incorporation in cells by pulsing twenty-four hours prior to harvesting cell cultures. […] Cells (2 × 10^3) were plated on collagen IV coated 96 well plates. Twenty-four hours later, compounds were added at varying concentrations. After 48 hours, ^3H-thymidine was added and cells were allowed to incorporate this label over a twenty-four hour period. Cellular extracts were harvested onto glass filters and incorporated radioactivity was determined by counting in a Beta scintillation counter. The IC50, defined as the drug concentration that causes 50% inhibition of ^3H-thymidine incorporation, was extrapolated from the plotted data."}, "[3]": {"tested_on": "human breast carcinoma line H3396", "experiment": "H3396 tumor cell proliferation (3H-thymidine incorporation)", "assay_type": "cell-based", "description": "Primary human umbilical vein endothelial cells (HUVEC) were purchased from CLONETICS Inc. (San Diego, CA) and used at passage 2 to 3. Proliferation was measured using ^3H-thymidine incorporation in cells by pulsing twenty-four hours prior to harvesting cell cultures. The human breast carcinoma line H3396 was used to assess activity of compound on tumor cells. Cells (2 × 10^3) were plated on collagen IV coated 96 well plates. Twenty-four hours later, compounds were added at varying concentrations. After 48 hours, ^3H-thymidine was added and cells were allowed to incorporate this label over a twenty-four hour period. Cellular extracts were harvested onto glass filters and incorporated radioactivity was determined by counting in a Beta scintillation counter. The IC50, defined as the drug concentration that causes 50% inhibition of ^3H-thymidine incorporation, was extrapolated from the plotted data. Cell selective inhibition for endothelial cells by a particular compound was defined by at least a ten-fold greater inhibition of HUVEC primary cell cultures when compared to the H3396 tumor cell line."}, "[4]": {"tested_on": "mammary 16/C murine carcinoma", "experiment": "Staged subcutaneous mammary 16/C carcinoma in mice, gross log cell kill", "assay_type": "in vivo, C3H mice", "description": "The final concentrations of each component of the vehicle was as follows: CREMOPHOR 10%; ethanol […]; aqueous 80%.\nC3H conventional mice were purchased from Harlan-Sprague Dawley (Indianapolis, IN) and fed mouse chow and water ad libitum.\nThe metastatic mammary 16/C murine carcinoma was propagated biweekly in C3H mice. Experiments were initiated by subcutaneous insertion by trocar of tumor fragments.\nFor in vivo tumor testing, the C3H mice were implanted subcutaneously with mammary 16/C tumor fragments. All treatments were initiated on Day 10 post-tumor implant, except for an untreated control group. All groups contained 8 mice. Tumors were measured once or twice weekly and dimensions were converted to weights using the formula Weight (milligrams)= […], where a=length and b=width (in millimeters). The median time for tumors within each group of mice to reach 1 gram was determined and the delays in median time to reach 1 gram tumor target size for treated (T) versus control (C) groups was calculated. These delays in tumor growth (T-C value in days) were further converted to gross log cell kill (LCK) values using the formula T-C/(tumor volume doubling time, TVDT, of the control group) x (3.32). A LCK of greater than or equal to 1 LCK was considered an active result. Cures were assessed at the end of each experiment and defined in the absence of a tumor mass of greater than 35 milligrams. Experiments were terminated more than 10 x TVDT following the completion of all treatments."}, "[5]": {"tested_on": "endothelial cells occurring in MATRIGEL plugs", "experiment": "In vivo […] plug angiogenesis model", "parameters": "species or system athymic (nu/nu) Balb/c mice", "conditions": "mouse", "description": "LX1 human lung tumor fragments that were maintained by serial subcutaneous passage in athymic (nu/nu) Balb/c mice were implanted subcutaneously as small fragments approximately 0.1 mm^3 in size. Tumor volume doubling time for this tumor in these studies was 2.8 days. When tumors reached the size range of 150-200 mm^3, liquid […] was injected subcutaneously on the side contralateral to the tumor. Treatment was initiated 24 hours later at varying doses and schedules. Prior to implanting, […] is prepared by placing solidified […] on ice overnight at 4 C in accordance with the method described by Passiniti et al. (Lab. Invest. 1992 67:519-28). At the liquid phase and while on ice, VEGF and bFGF (Peprotech, Inc. Rocky Hill, NJ) is added to the […] at final respective concentrations of 75 ng/ml and 300 ng/ml. Stock solutions of these growth factors are made fresh at 10 mg/ml in PBS. […] These plugs were then processed for paraffin embedding and sectioned at 5 µm thickness followed by staining with hematoxylin and eosin prior to quantitative analysis. The number of endothelial cells in plugs was quantitated using the IMAGEPRO PLUS software (Media Cybernetics, Inc., Silver Spring, MD) at a magnification of 20x. […]\nAngiogenesis is evaluated in these plugs as the number of endothelial cells migrating into plugs from compound treated groups relative to the vehicle treated group. […]"}, "[6]": {"conditions": "metronomic regime 20 mg/kg orally, q2dx15, cumulative dose 300 mg/kg"}}, "note": "Like-named read-outs stand apart in the source and are kept apart here."}
{"compound": "O=P1(N(CCCl)CCCl)NCCCO1", "note": "(stereo not shown) [cyclophosphamide]", "values": [{"measurement": "controlling tumor growth", "setting": "[1]", "value": "more effective"}]}
{"compound": "CC(=O)O[C@H]1C(=O)[C@@]2(C)[C@H]([C@H](OC(=O)c3ccccc3)[C@]3(O)C[C@H](OC(=O)[C@H](O)[C@@H](NC(=O)c4ccccc4)c4ccccc4)C(C)=C1C3(C)C)[C@]1(OC(C)=O)CO[C@@H]1C[C@@H]2O", "note": "[TAXOL, paclitaxel]", "values": [{"measurement": "IC50", "setting": "[2]", "value": 5, "unit": "nM"}, {"measurement": "IC50", "setting": "[3]; H3396, second value of two separate experiments, read-out: IC50 in Cells H3396", "value": 4, "unit": "nM"}, {"measurement": "cures/total", "setting": "[4]; Paclitaxel 20 mg/kg/inj qd 10-14 iv, Paclitaxel 30 qd 32-36 iv, no Formula I, Day 88 post-tumor implant", "value": "1/8"}, {"measurement": "cures/total", "setting": "[4]; Paclitaxel 30 mg/kg/inj qd 10-14 iv only, Day 60 post tumor implant", "value": "2/8"}, {"measurement": "cures/total", "setting": "[4]; Paclitaxel 30 mg/kg/inj qd 10-14 iv, Paclitaxel 30 qd 32-36 iv, no Formula I, Day 88 post-tumor implant, listed as Paclitaxel", "value": "2/8"}, {"measurement": "cures/total", "setting": "[4]; Paclitaxel 30 mg/kg/inj qd 10-14 iv, Paclitaxel 30 qd 32-36 iv, no Formula I, Day 88 post-tumor implant, listed as paclitaxel", "value": "2 of 8"}, {"measurement": "cures/total", "setting": "[4]; Paclitaxel 45 mg/kg/inj qd 10-14 iv only, Day 60 post tumor implant", "value": "1/8"}, {"measurement": "likely MTD regimen", "setting": "[4]; during each of the two courses of treatment (qdx5; 10, 32, iv)", "value": 30, "unit": "mg/kg/inj"}, {"measurement": "MTD regimen", "setting": "[4]; qdx5, iv, beginning on Day 10 post-tumor implant, single course", "value": 45, "unit": "mg/kg/injection"}]}
{"compound": "COC(=O)O[C@@]12CO[C@@H]1C[C@H](O)[C@@]1(C)C(=O)[C@H](OC(C)=O)C3=C(C)[C@@H](OC(=O)[C@H](O)[C@@H](NC(=O)OC(C)(C)C)C(C)(C)C)C[C@@](O)([C@@H](OC(=O)c4ccccc4)[C@H]21)C3(C)C", "note": "[Formula I, 3'-tert-Butyl-3'-N-tert-butyloxycarbonyl-4-deacetyl-3'-dephenyl-3'-N-debenzoyl-4-O-methoxycarbonyl-paclitaxel]", "values": [{"measurement": "IC50", "setting": "[3]; H3396, read-out: IC50 in Cells H3396, second value of two separate experiments", "value": 3, "unit": "nM"}, {"measurement": "doses lower than the maximum tolerated dose at which anti-angiogenic effects are still observed in vivo", "setting": "[5]", "value": "approximately 13 fold"}, {"measurement": "weight loss", "setting": "L2987 human lung tumors; 60 mg/kg orally, standard schedule q2dx5 (MTD), cumulative dose 300 mg/kg", "value": "weight loss was also observed"}, {"measurement": "anti-tumor response", "setting": "L2987 human lung tumors; 60 mg/kg orally, standard schedule q2dx5 (MTD), cumulative dose 300 mg/kg, compared with metronomic regime", "value": "greater anti-tumor response was observed"}, {"measurement": "tumor growth", "setting": "L2987 human lung tumors; [6]", "value": "suppressed tumor growth"}, {"measurement": "weight loss", "setting": "L2987 human lung tumors; [6]", "value": "no weight loss was observed"}]}
